Results published in patent publication US8211945B2, “Carba-sugar amine derivative and glycolipid metabolic disorder treating agent containing the same as active ingredient” (Seikagaku Corporation, priority 2001, dated 2012).
Residue numbers refer to the chain shown, from its start.

Key:
Experiment in all cases: Mutant β-galactosidase activity in model cells, 4 days culture
Type in all cases: cell-based
[1] = target: T1, human mutant β-galactosidase W273L (Homo sapiens, UniProt P16278, W273L)
T1 construct: expressed in transfected cells; host or cells: SV40-immortalized skin fibroblasts of a β-galactosidase-deficient knockout mouse
T1 sequence (P16278 29-677 W273L): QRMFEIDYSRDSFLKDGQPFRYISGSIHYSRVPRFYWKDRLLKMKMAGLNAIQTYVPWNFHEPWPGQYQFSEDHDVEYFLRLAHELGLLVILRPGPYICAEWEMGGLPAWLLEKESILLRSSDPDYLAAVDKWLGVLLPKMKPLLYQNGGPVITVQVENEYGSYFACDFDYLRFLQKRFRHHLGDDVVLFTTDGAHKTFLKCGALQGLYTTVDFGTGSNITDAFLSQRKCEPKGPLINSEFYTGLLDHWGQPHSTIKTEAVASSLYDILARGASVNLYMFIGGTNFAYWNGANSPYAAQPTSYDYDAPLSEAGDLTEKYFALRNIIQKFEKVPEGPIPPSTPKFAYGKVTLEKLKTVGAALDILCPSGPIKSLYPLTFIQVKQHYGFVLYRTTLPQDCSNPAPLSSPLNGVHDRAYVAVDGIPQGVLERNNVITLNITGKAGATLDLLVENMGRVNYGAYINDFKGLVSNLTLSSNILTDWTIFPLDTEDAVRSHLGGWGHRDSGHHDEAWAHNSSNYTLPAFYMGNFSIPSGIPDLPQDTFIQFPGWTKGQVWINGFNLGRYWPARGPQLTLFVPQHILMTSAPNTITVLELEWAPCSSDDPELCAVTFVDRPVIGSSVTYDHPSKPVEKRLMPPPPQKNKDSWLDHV

[2] = target: T2, human mutant β-galactosidase P263S (Homo sapiens, UniProt P16278, P263S)
T2 construct: expressed in transfected cells; host or cells: SV40-immortalized skin fibroblasts of a β-galactosidase-deficient knockout mouse
T2 sequence (P16278 29-677 P263S): T1 sequence (P16278 29-677 W273L) with P235S, L245W

[3] = target: T3, human mutant β-galactosidase G123R (Homo sapiens, UniProt P16278, G123R)
T3 construct: expressed in transfected cells; host or cells: SV40-immortalized skin fibroblasts of a β-galactosidase-deficient knockout mouse
T3 sequence (P16278 29-677 G123R): T1 sequence (P16278 29-677 W273L) with G95R, L245W

Structure (SMILES)	enzyme activity increased in comparison with the control ([1]; W273L, 0.2 μM) [%]	Relative ratio (×100%) ([1]; W273L, substance 18 vs control)	enzyme activity ([1]; transferred gene W273L, 0.2 μM, 4 days)	Relative ratio (×100%) ([2]; P263S, substance 18 vs control)	enzyme activity ([2]; transferred gene P263S, 0.2 μM, 4 days)	Relative ratio (×100%) ([3]; G123R, substance 18 vs control)	enzyme activity ([3]; transferred gene G123R, 0.2 μM, 4 days)	enzyme activity, Control ([1]; transferred gene W273L, control substance 0.5 mM NB-DGJ)	enzyme activity, Control ([2]; transferred gene P263S, control substance 0.5 mM NB-DGJ)	enzyme activity, Control ([3]; transferred gene G123R, control substance 0.5 mM NB-DGJ)
CCCCCCCCN[C@@H]1C=C(CO)[C@H](O)C(O)[C@@H]1O (stereo partly drawn) [Substance 18, N-octyl-5a-carba-α-L-arabino-hexo-5(5a)-enopyranosylamine]	≥ 150	1.50 ×100%	17.71	6.58 ×100%	0.12	1.55 ×100%	0.20	–	–	–
CCCCN1C[C@H](O)[C@@H](O)[C@@H](O)[C@H]1CO [Control, N-(n-butyl)-deoxygalactonojirimycin, reference compound]	–	–	–	–	–	–	–	11.83	0.02	0.13
